A melting point compilation (Tetko et al.; mined from patent text by program, amines drawn as free bases though some values may be those of a salt)

melting point [°C] | Structure (SMILES)
168 to 170 | Cn1c(=O)cc(-c2cccc(Cl)c2)c2cccnc21
221 to 222 | CCc1[nH]n(C2CCCC2)c2nc(-c3ccccc3)nc(=O)c1-2
152 to 154 | CCc1cccc(CC)c1-n1c(C(=O)O)cnc1SCc1ccccc1
115 | CCC(CC)CNC(=O)c1ccc2c(c1)N(C(C)CN1CCCC1)c1ccccc1S2 (racemic)
150 to 151 | COc1cc(/C(C#N)=C\c2ccc(Cl)c(N)c2)cc(OC)c1OC
208 to 210 | Cc1cc(C)cc(Sc2c(C)c[nH]c(=O)c2N)c1
82 to 84 | CCOc1ccc([N+](=O)[O-])nc1C
201 to 202 | Cc1nc2c3c(ccc2n1C)C(=O)CC(c1ccccc1)O3 (centres undefined)
147 to 150 | CCn1c(-c2ccc(OC)c(OC)c2)cc(=S)n(C)c1=O
> 260 | O=C1CC(c2cccs2)=Nc2ccc(I)cc2N1
98 to 100 | COC(=O)Cc1c(C)n(Cc2ccccc2OC)c2ccc(OC)cc12
79 to 80 | N#Cc1ccc(C(=C2CCCCCC2)c2nc[nH]n2)cc1
101 to 102 | CCCc1nn(-c2ccc(C(F)(F)F)cn2)cc1CCCOc1ccc(CC(=O)O)cc1
202 to 204 | COc1ccc2c(c1)S(=O)(=O)C(C(=O)Nc1ccc(F)cc1)C(=O)N2C (centres undefined)
128 to 130 | COC(=O)c1c(C)nc(-c2ccccc2)nc1-c1cccc([N+](=O)[O-])c1
115 to 116 | N#Cc1cccc2[nH]ccc12
149 to 150 | NC(=O)c1cc(OCCNCC(O)COc2ccc(CCOCC3CC3)cc2)ccc1O (centres undefined)
231 | COc1cc(C(=O)c2nc(NS(C)(=O)=O)c3ccccn23)ccc1[N+](=O)[O-]
63.5 to 66 | O=C(Oc1ccc(F)cc1)c1cccc(F)c1
175 to 178 | COc1ccc(-c2cnc3cc4cn(CCOC(C)=O)nc4cc3n2)cc1F

melting point [°C] | Structure (SMILES)
122 to 123 | CSC(=O)c1cccc2c1[nH]c1ccccc12
86 to 88 | CCc1c(CC)n(Cc2ccccc2Cl)c2cc(C(=O)OC)ccc12
113 to 115 | CCCc1c(OCCCOc2cc([N+](=O)[O-])c(Cl)cc2C)ccc(C(C)=O)c1O
221 to 224 | COc1cc2c3ccc(OC)c(OC)c3n(S(=O)(=O)c3cc(Cl)ccc3Cl)c2cc1OC
110 | CCOC(=O)C(C)Oc1ccc(Oc2cnc3cc(Cl)ccc3n2)cc1F (centres undefined)
138 to 141 | CNC(=O)c1ccccc1CCc1ccc(Br)cc1
112 to 114 | COCCOCOc1c(C(C)(C)C)cc(-c2noc(=O)[nH]2)cc1C(C)(C)C
228 to 229 | COC(=O)c1cc(C(=O)N2CCCC(=O)C2)c2cc(Cc3ccc(F)cc3)cnc2c1O
151 to 155 | O=C1CCC(c2ccc(OCC3CO3)c3ccccc23)=NN1 (centres undefined)
> 245 | N#Cc1cnc2sc(-c3ccccc3)cc2c1NCCc1c[nH]cn1
130 to 132 | O=C1NCCc2c1c1cccc(F)c1n2COCc1ccccc1
248 to 251 | CCCOc1ccc(C#N)cc1-c1ccc(C#N)c(=O)[nH]1
160 to 162 | CCCOc1cc(Cl)ccc1-c1nc2ncn(C)c(=S)n2n1
166 to 167 | CCCc1cc(OC)c(OC)cc1Cc1cnc(N)nc1N
136 to 137 | CC(C)CN1C(=O)C2CC(c3ccc([N+](=O)[O-])cc3)(C2)C1=O
169 to 171 | CCN(CC)c1nc(-c2ccncc2)nc2sc(C#N)c(C)c12
225 to 227 | CC(C)c1ccc(N2Cc3ccc([N+](=O)[O-])cc3C2=O)cc1
44 to 46 | N#CCCCCCC(=O)c1ccc(Cl)cc1
118 to 120 | COc1ccc(F)c2c1C(=O)CC2

Further lines, the compound ahead of its results:

Structure (SMILES) | melting point [°C]
Cc1nc(C)c(N2CCCn3c2nc2c(Cl)ccc(C(OC(F)F)C(F)(F)F)c23)c(C)n1 (centres undefined) | 168 to 170
CCn1c(C)c(C(C)=O)c(N=Cc2ccccc2)c1-c1ccccc1 | 139 to 141
Cc1oc(-c2ccccc2)nc1CCc1nc(COc2cccc(CC(=O)O)c2)cs1 | 153 to 154
CCOC(=O)C(=CNC1CC1)C(=O)c1c(F)c(F)c(F)c(F)c1F | 85 to 86
C#CCNC(=C[N+](=O)[O-])NCCSCc1nccs1 | 121 to 123
O=C(O)C=CC(=O)c1ccc(Oc2cccc(Cl)c2)cc1 | 110 to 111
Cc1c(C(N)=O)c2ccccc2n2c(N3CCCC3)nc(-c3noc(C4CC4)n3)c12 | 206 to 209
O=C(c1cnoc1C1CC1)c1ncc(Cl)cc1Cl | 74 to 75
CCCCCCCCCCCCc1cn(C(C(=O)O)c2ccccc2)cn1 (centres undefined) | 110 to 118
NS(=O)(=O)Nc1ccc(CCN2CCC(COC(c3ccccc3)c3ccccc3)CC2)cc1 | 172 to 174
O=C(NCC12CC3CC(CC(C3)C1)C2)c1c(Cl)ccc2nc(N3CCC(C(=O)O)(c4ccccc4)CC3)ccc12 | 235 to 237
COCc1cnc2c(NC(=O)c3ccccc3C(F)(F)F)cccc2c1N1CCN(C)C1=O | 156
COc1ccc(C)cc1-c1ccc(S(=O)(=O)N2c3ccccc3CC2C(=O)NCc2ccc(C(=O)O)cc2)cc1 (centres undefined) | 153 to 165
O=C1c2ccccc2C(=O)N1CC(=O)N1c2ccccc2N(Cc2cccc3ccccc23)C(=O)[C@H]2CCC[C@H]21 (relative stereo) | 266 to 270
COc1ccc(Nc2ccc(Nc3ncnc4cc(-c5ccc(OC)nc5)sc34)cc2)cc1 | 149 to 159
COc1ccccc1N1CCN(CCn2c(=O)c3sccc3n(C(C)=O)c2=O)CC1 | 156 to 158
COc1cc(Cc2cnc(N)nc2N)cc2c(C)ccnc12 | 287 to 290
C[Si](C)(C)c1ccc(O)cc1 | 76
O=C(O)c1cn(C2CC2)c2c(F)c(F)c(F)c(F)c2c1=O | 179 to 180
CC1Cc2cc(O)ccc2C2C(F)CC3(C)CC(O)CC3C12 (centres undefined) | 239 to 240

Structure (SMILES) | melting point [°C]
CC(C)=NOCCCn1cnc2c(N)nc3cccnc3c21 | 120 to 121
Cc1cn(CC(O)(CC(C)(C)c2cccc3c2OCC3)C(F)(F)F)c(CO)c(C)c1=O (centres undefined) | 160 to 162
O=C(O)C1=Cc2c(ccc3occ(-c4ccc(Br)cc4)c23)OC1C(F)(F)F (centres undefined) | > 250
O=S1N=C(NCCCOc2cccc(CN3CCCCC3)c2)C(NCc2ccccn2)=N1 (centres undefined) | 140 to 143
CC(C)n1nc(-c2sc(NC(=O)c3ccccc3)nc2-c2ccccc2)ccc1=O | 126 to 129
O=C1NCCN1c1ccc(S(=O)(=O)Nc2ccc(OC(F)F)cc2)cc1 | 198 to 200
CC1NC(=NC2CNCCO2)N(CCO)C1C (centres undefined) | 108 to 109
COC1=CC(=O)C(=O)C=C1NCCCl | 150 to 152
O=C(NCC(=O)c1cccs1)c1ccc(Cl)cc1 | 157 to 159
COC(=O)c1ccc2c(c1)S(=O)(=O)N=CN2C1CC1 | 192 to 195
CC(C)Cn1c(=O)n(C)c(=O)c2c(Sc3cccc(O)c3)n(Cc3cccc4ccccc34)cc21 | 150 to 151
O=C(NCC(F)(F)F)C1(CCCc2ccccc2)c2ccccc2-c2ccccc21 | 86 to 88
Cc1cc(Br)cc(C(=O)Nc2ccc(F)c(C)n2)n1 | 182
CN(C)c1nc(Cl)nc(NCC(F)(F)F)n1 | 181 to 184
Cc1ccc(Cl)c(Nc2ccccc2C(N)=S)c1Cl | 134 to 136
CCn1ncc2c(NCC3CCCCC3)c3cc(OCCN4CCOCC4)ccc3nc21 | 176 to 178
CCOC(=O)C=C[C@H](Cc1ccc(-c2ccccc2)cc1)NC(=O)OC(C)(C)C | 91 to 94
CC(=NOCCOc1ccc(C[C@H](Oc2ccc(C(C)(C)C)cc2)C(=O)O)cc1)c1ccc(-c2ccccc2)cc1 | 141 to 143
O=c1oc(-c2ccccc2)cc(O)c1Cc1cccnc1SCc1ccccc1 | 103 to 106
CCCCNc1c(C(C)=O)cnc2onc(C)c12 | 116 to 117

Structure (SMILES) | melting point [°C]
CC12C=CC(=O)C=C1CCC1C2CCC2(C)C(=O)COC12 (centres undefined) | 181 to 185
CCCCCCCCC(O)CNCCCCCCNCC(O)CCCCCCCC (centres undefined) | 118 to 127
CN1C(=O)c2c(Oc3ccccc3OS(=O)(=O)C(F)(F)F)cc3c(c2C1=O)c1ccc(OCc2ccccc2)cc1n3C(=O)OC(C)(C)C | 186
COc1ccc(S(=O)(=O)NCCCO)c(OC)c1OC | 95 to 97
N#Cc1cccc(N2C(=O)CC(=O)Nc3c2ccc2c3CCC2)c1 | 250 to 251
COc1ccc2cc(C(C)C(=O)ON(C(N)=O)C(C)c3ccoc3)ccc2c1 (centres undefined) | 128 to 134
Cc1nc2c(O)cc(C(=O)N(C)C)cc2n1COCC[Si](C)(C)C | 150 to 151
CCOCc1nc2c(N(Cc3ccccc3)Cc3ccccc3)nc(Cl)c(C)c2n1N | 127 to 129
CC(O)c1ccc(CNC(=O)c2cccnc2Oc2cccnc2)s1 (centres undefined) | 92 to 94
CC(=O)Nc1ccc(C(=O)N2CCOCC2)cc1[N+](=O)[O-] | 128 to 132
Cc1nc(NC(=O)c2cnn3c(C(F)(F)F)cc(-c4ccc(C(F)(F)F)cc4)nc23)sc1S(=O)(=O)NC(CO)CO | 215
CC(C)(C)OC(=O)NCc1nc(C(=O)O)cs1 | 185
Cc1c(CC(c2ccccc2)c2ccccc2)ncn1C(c1ccccc1)(c1ccccc1)c1ccccc1 | 205 to 206
CC(C)[C@H](NC(=O)[C@H](CC(=O)OC(C)(C)C)NC(=O)CNC(=O)c1csc(NC(=O)NCc2ccccc2)n1)C(=O)OC(C)(C)C | 108 to 110
O=C1OCN(C(=O)OCc2ccccc2)[C@H]1CCBr | 85
CC(C)(C)OOC(C)(C)c1ccc(C(C)(C)OOC(C)(C)C)cc1 | 76 to 77
Oc1cnc(-c2ccccc2)c(F)c1 | 150 to 151
CC(=O)NCc1ccc(CN2CCN(c3ccccc3)CC2)cc1 | 135 to 136
O=S(=O)(c1ccc(F)cc1)c1c[nH]c2ccc(Br)cc12 | 163 to 164
CCCn1c(COCC)nc2c(N)nc3ccc(OCC(=O)N4CCOCC4)cc3c21 | 196 to 197
